Assays:
Assay type in all cases: biochemical
M.TaqI = target: T1, M.TaqI (Thermus aquaticus, UniProt P14385); experiment: DNA protection assay with M.TaqI (wild-type) on phage lambda DNA; settings: cofactor 300 μM, then R.TaqI
T1 construct: made in house
Description: (§1) Transfer kinetics of the activated ethyl (—CH2CH3), propyl (—CH2CH2CH3), prop-2-enyl (—CH2CH═CH2), prop-2-ynyl (—CH2C≡CH), but-2-ynyl (—CH2C≡CCH3), pent-2-ynyl (—CH2C≡CCH2CH3) and benzyl group (—CH2C6H5) from cofactors 3-9 by the DNA adenine-N6 methyltransferase M.TaqI and its variant V21 G, the DNA cytosine-C5 methyltransferase M.HhaI and its variant Q82A, the DNA cytosine-N4 methyltransferase M.BcnIB and the DNA cytosine-C5 methyltransferase M.SssI variant Q142A to phage lambda DNA (48502 base pairs) were investigated using a DNA protection assay. This assay makes use of the fact that DNA methyltransferase-catalyzed modifications of nucleobases within the recognition sequences of restriction endonucleases can protect the DNA against fragmentation by these enzymes. […] Unmodified DNA containing 5′-TCGA-3′ recognition sequences is readily fragmentated by R.TaqI. After DNA modification by M.TaqI in the presence of a cofactor with an activated group Z—R modified 5′-TCGA^Z—R-3′ sequences are formed and, as a result, R.TaqI is unable to fragment the modified DNA. Occurrence of fragmentation is then analyzed by agarose gel electrophoresis.
(§2) By varying the amounts of DNA methyltransferase, this assay is used to investigate the enzymatic activities of the different DNA methyltransferases with cofactors 3-9 and compare them to the enzymatic activities with the natural cofactor 1. The minimal amount of DNA methyltransferase needed to fully protect 1 μg of phage lambda DNA against restriction endonuclease fragmentation under the given experimental conditions is defined as one enzyme unit (u).
(§3) Afterwards a solution (30 μL) containing R.TaqI restriction endonuclease (40 u, MBI Fermentas), bovine serum albumin (0.166 mg/mL) and buffer (16.6 mM Tris hydrochloride, 166 mM sodium chloride, 8.3 mM magnesium chloride, pH 8.0) was added to each dilution and incubation at 60-65° C. was continued for 15 min. Loading buffer (10 μL, 0.25% bromphenol blue, 30% glycerol) was added to each sample, and aliquots (12 μL) were analyzed for the degree of protection by agarose gel (1%) electrophoresis. Parallel control experiments were performed with phage lambda DNA in the absence of M.TaqI and in the presence of M.TaqI (200 ng).
Afterwards a solution (10 μL) containing R.TaqI restriction endonuclease (10 u, MBI Fermentas), bovine serum albumin (0.1 mg/mL) and buffer (33 mM Tris acetate, 66 mM potassium acetate, 10 mM magnesium acetate, pH 7.9) was added to each dilution and incubation was continued at 65° C. for 1 h. […] Parallel control experiments were performed with phage lambda DNA in the absence of M.TaqI and in the presence of M.TaqI (180 ng).

M.TaqI-V21G = target: T2, M.TaqI-V21G (Thermus aquaticus, UniProt P14385, V21G); experiment: DNA protection assay with M.TaqI variant V21G on phage lambda DNA; settings: 1 μg phage lambda DNA, cofactor 300 μM, 60° C. for 4 h, then R.TaqI
T2 construct: made in house
T2 sequence (P14385 whole entry V21G): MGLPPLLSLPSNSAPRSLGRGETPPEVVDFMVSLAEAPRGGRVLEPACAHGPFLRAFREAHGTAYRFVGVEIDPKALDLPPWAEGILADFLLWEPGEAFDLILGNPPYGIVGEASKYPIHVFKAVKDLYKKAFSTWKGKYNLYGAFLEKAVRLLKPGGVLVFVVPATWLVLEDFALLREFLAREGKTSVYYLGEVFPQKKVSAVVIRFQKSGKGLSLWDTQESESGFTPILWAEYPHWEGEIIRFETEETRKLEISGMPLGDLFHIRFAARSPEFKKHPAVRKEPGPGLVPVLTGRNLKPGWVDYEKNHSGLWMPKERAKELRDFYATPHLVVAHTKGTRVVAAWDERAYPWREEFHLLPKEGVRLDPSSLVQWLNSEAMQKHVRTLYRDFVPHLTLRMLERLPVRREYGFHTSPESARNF
Description: as §1, §2, §3
Therefore, the codon for V21 was changed to a codon for glycine by standard PCR mutagenesis (Ho et al., (1989) Gene 77, 51-59) and the correct DNA sequence of the complete gene was verified by DNA sequencing. […] The DNA protection assay with the V21G variant was performed as described for the wild type (Example 3A.1).

M.BcnIB [1] = experiment: DNA protection assay with M.BcnIB (wild-type) on phage lambda DNA; settings: 1.10 μg phage lambda DNA, cofactor 300 μM, 37° C. for 4 h, then R.BcnI; pH 7.4 (pH 6.0 for cofactor 6)
Description: as §1, §2
Afterwards the reactions were stopped by heating to 80° C. for 10 min. A solution (10 μL) containing R.BcnI restriction endonuclease (12 u, MBI Fermentas), bovine serum albumin (0.1 mg/mL) and buffer (33 mM Tris acetate, 66 mM potassium acetate, 26.5 mM magnesium chloride, pH 7.9) was added to each dilution and incubation at 37° C. was continued for 1 h. […] Parallel control experiments were performed with phage lambda DNA in the absence of M.BcnIB and in the presence of M.BcnIB (144 ng).

M.BcnIB [2] = experiment: Modification of cytosine-N4 in duplex oligodeoxynucleotide V.VI by M.BcnIB, nucleoside analysis by HPLC/ESI-MS; settings: duplex V.VI 12.5 μM, cofactor 300 μM, enzyme 15 μM, 37° C. over night
Description: Transfer of the activated ethyl (CH2CH3), propyl (CH2CH2CH3), prop-2-enyl (CH2CHCH2), prop-2-ynyl group (CH2CCH), but-2-ynyl (CH2CCCH3), pent-2-ynyl (CH2CCCH2CH3) or benzyl group (CH2C6H5) from cofactors 3-9 by the DNA adenine-N6 methyltransferase M.TaqI, the DNA cytosine-C5 methyltransferase M.HhaI variant Q82A or the DNA cytosine-N4 methyltransferase M.BcnIB to DNA was first investigated using short duplex oligodeoxynucleotides as substrates. After enzymatic transfer the duplex oligodeoxynucleotides were enzymatically fragmented and the resulting modified nucleosides were analyzed by reversed-phase HPLC coupled with ESI-MS.
The duplex oligodeoxynucleotide V.VI was produced by mixing equal molar amounts (2.5 nmol) of complementary single-stranded oligodeoxynucleotide V (5′-[…]-3′) (SEQ ID NO. 3) and VI (5′-[…]-3′) (SEQ ID NO. 4) in water, heating at 85° C. for 5 min and slow cooling to room temperature. […] M.BcnIB was denatured by heating to 80° C. for 10 min and incubated with proteinase K at 55° C. 1 h. Hydrolysis products were removed using gel filtration column (G-25 column, Amersham Biosciences).
The obtained solutions of duplex oligodeoxynucleotides were treated with buffer ( 1/10 volume, 100 mM Tris-HCl, 100 mM magnesium chloride, 10 mM zinc acetate, pH 7.5) containing Nuclease P1 (1500 u, Sigma) and calf intestine alkaline phosphatase (30 u, MBI Fermentas) and incubated at 37° C. for 4 h. Nucleosides were analyzed by reversed-phase HPLC (Discovery C18 150×2.1 mm, 5 μm, equipped with a Supelguard Discovery C18 20×2.1 mm, 5 μm, pre-column, Supelco, Germany) coupled with a mass spectrometric detector (HP 1100 series ESI-MS equipped with single quadruple). Compounds were eluted with methanol (0% for 6 min, followed by linear gradients to 56% in 15 min and to 80% in 1 min) in ammonium formate buffer (20 mM, pH 4.25 for cofactors 3, 4, 6 and pH 3.5 for cofactor 5) at a flow of 0.3 mL/min and detected at 280 nm. For on-line mass spectrometric detection post-column mobile phase modification (equal co-flow of 96% methanol, 4% formic acid and 1 mM sodium hydroxide) was used to enhance the detection efficiency of 2′-deoxycytidine and its derivatives. Mass spectra were recorded in 50-600 m/z range.

[3] = 1 μg phage lambda DNA, 60° C. for 4 h, 1 u = minimal enzyme amount fully protecting 1 μg DNA

T1 sequence (P14385 whole entry): as the sequence (P14385 whole entry V21G) above, with G21V counted along it

Row | SMILES | specific activity of M.TaqI with the cofactor (M.TaqI; [3]) [u/μg] | specific activity of M.TaqI-V21G with the cofactor (M.TaqI-V21G) [u/μg] | specific activity of M.BcnIB with the cofactor (M.BcnIB [1]) [u/μg] | cofactor function for M.BcnIB (transfer of group Z-R to cytosine-N4) (M.BcnIB [2]) | specific activity of M.TaqI with the cofactor (M.TaqI; 1.03 μg phage lambda DNA, 60° C. for 1 h only (multiply by four to compare with 4 h values)) [u/μg]
1 | CC#CC[S+](CCC(N)C(=O)O)CC1OC(n2cnc3c(N)ncnc32)C(O)C1O (mixture of isomers) [Cofactor 7] | 1280 | 80 | 28 |  | 
2 | CC[S+](CCC(N)C(=O)O)CC1OC(n2cnc3c(N)ncnc32)C(O)C1O (centres unmarked) [Cofactor 3] | 10 | 5 |  | functions as a cofactor | 
3 | CCC[S+](CCC(N)C(=O)O)CC1OC(n2cnc3c(N)ncnc32)C(O)C1O (centres unmarked) [Cofactor 4] | < 5 | < 5 |  | does not function as a cofactor | 
4 | C=CC[S+](CCC(N)C(=O)O)CC1OC(n2cnc3c(N)ncnc32)C(O)C1O (centres unmarked) [Cofactor 5] | 80 | 640 |  | functions as a cofactor | 
5 | C#CC[S+](CCC(N)C(=O)O)CC1OC(n2cnc3c(N)ncnc32)C(O)C1O (centres unmarked) [Cofactor 6] | 10 | 20 | 0 | does not function as a cofactor | 
6 | CCC#CC[S+](CCC(N)C(=O)O)CC1OC(n2cnc3c(N)ncnc32)C(O)C1O (centres unmarked) [Cofactor 8] | 640 | 80 | 14 |  | 
7 | NCCCC(=O)NCC#CC[S+](CCC(N)C(=O)O)CC1OC(n2cnc3c(N)ncnc32)C(O)C1O (centres unmarked) [Cofactor 10] |  |  |  |  | 11
